# Source: US3950351A, “New derivatives of 2-benzamido-5-nitro thiazoles” (S.P.R.L. Phavic, priority 1973, dated 1976)
# Assays:
# Syphacia obvelata = assay: Test for anthelminthics, nematodes (R. CAVIER); assay type: in vivo; set-up: Syphacia: (4) percentage of activity: concentration or dose not given beside the values; details: Table II; 10 subjects
# Text: (§1) Biological tests have been performed with a great number of compounds of formula I, using the following techniques: 1)- Test for amoebicidal activity described by R. CAVIER, Ann. pharm. franc. 1960, 18, pages 583-589 and by R. CAVIER and J. CENAC, Bull. Soc. Path. exot. 1972, 65, pages 399-404. 2) - Test for trichomonacidal activity described by R. Cavier and P. BUOT, Ann. Pharm. franc., 1964, 22, pages 211-216 and by R. CAVIER and J. CENAC, Semaine des Hopitaux, 1972, 48, pages 391-394. 3)- Tests for anthelminthics described for nematodes (such as Syphacia obvelata) by R. CAVIER, Bull. Soc. Path. exot. 1962, 55, pages 412-417, and for cestodes (such as Hymenolepis nana), by R. CAVIER, Ann. pharm. franc. 1956, 14, pages 545-552 and by R. CAVIER and M. J. NOTTEGHEM, Ann. Pharm. franc., 1968, 28, pages 603-606.
# Biomphalaria glabrata = assay: Molluscicidal activity test; assay type: in vivo; details: 24 h exposure at 26°C, observed again after 24 h, 10, 1 and 0.1 ppm tested, read-out: dose at which active against Biomphalaria glabrata
# Procedure: For determining the molluscicidal activity, the following test is used:
# Two to four weeks old molluscs are used. Five molluscs having the same size are put in the same container and covered with a testing solution at a temperature of 26°C during 24 hours. After rinsing, the animals are again observed after 24 hours. The total duration of this test therefore is 48 hours.
# Testing solutions containing respectively 10, 1 and 0.1 parts per million of the compounds to be tested in water having a hardness of 10° (hydrotimetric) are used.
# The sensitivity of the mollusc strain is standardized with known reference molluscicides such as Niclosamide (Registered Trademark).
# Acute toxicity in mice = details: mouse, in vivo
# Text: Toxicity investigations have shown that the compounds of formula I have a very low acute toxicity both on oral administration and on intraperitoneal administration to mice.
# Hymenolepis nana [1] = assay: Test for anthelminthics, cestodes (R. CAVIER; R. CAVIER and M. J. NOTTEGHEM); assay type: in vivo; set-up: Hymenolepis nana: (4) percentage of activity: concentration or dose not given beside the values; details: Table II; 10 subjects
# Text: as §1
# Hymenolepis nana [2] = assay: Tests on Hymenolepis nana in mice, anthelminthic activity, single dose (technique of R. CAVIER); assay type: in vivo; set-up: Mortality: unit not given here
# Text: Tests on Hymenolepis nana in mice have also been performed in order to determine the anthelminthic activity of various cmpounds of formula I, according to the technique of R. CAVIER. […] Four hours later, the animals have been purged by means of sodium sulfate.
SMILES,Syphacia: (2) number of dead subjects (Syphacia obvelata),Syphacia: (3) number of subjects from which the parasite has been eradicated (Syphacia obvelata),Syphacia: (4) percentage of activity (Syphacia obvelata) [%],minimal effective concentration (Biomphalaria glabrata) [µg/mL],Hymenolepis nana: (2) number of dead subjects (Hymenolepis nana [1]),Hymenolepis nana: (3) number of subjects from which the parasite has been eradicated (Hymenolepis nana [1]),Hymenolepis nana: (4) percentage of activity (Hymenolepis nana [1]) [%],other results
CC(=O)Oc1ccccc1C(=O)Nc1ncc([N+](=O)[O-])s1 [PH 5776],0,6,60,1,0,10,100,"LD50 (Acute toxicity in mice; ip, intraperitoneal administration): > 95 mg/kg; LD50 (Acute toxicity in mice; oral administration): > 4000 mg/kg; Mice from which parasite has been eradicated, number (Hymenolepis nana [2]; 25 mg/kg): 20; Mice from which parasite has been eradicated, percentage (Hymenolepis nana [2]; 25 mg/kg): 100%; Mortality (Hymenolepis nana [2]; 25 mg/kg): 0; Mice from which parasite has been eradicated, number (Hymenolepis nana [2]; 50 mg/kg): 30; Mice from which parasite has been eradicated, percentage (Hymenolepis nana [2]; 50 mg/kg): 100%; Mortality (Hymenolepis nana [2]; 50 mg/kg): 0; Mice from which parasite has been eradicated, number (Hymenolepis nana [2]; 100 mg/kg): 10; Mice from which parasite has been eradicated, percentage (Hymenolepis nana [2]; 100 mg/kg): 100%; Mortality (Hymenolepis nana [2]; 100 mg/kg): 0; Mice from which parasite has been eradicated, number (Hymenolepis nana [2]; 200 mg/kg): 10; Mice from which parasite has been eradicated, percentage (Hymenolepis nana [2]; 200 mg/kg): 100%; Mortality (Hymenolepis nana [2]; 200 mg/kg): 0"
CC(=O)Oc1cccc(C(=O)Nc2ncc([N+](=O)[O-])s2)c1 [PH 6045],0,0,0,10,0,4,40,
CC(=O)Oc1ccc(C(=O)Nc2ncc([N+](=O)[O-])s2)cc1 [PH 6046],0,2,20,,0,3,30,
CCC(=O)Oc1ccccc1C(=O)Nc1ncc([N+](=O)[O-])s1 [PH 6049],0,2,20,1,0,10,100,"Mice from which parasite has been eradicated, number (Hymenolepis nana [2]; 25 mg/kg): 8; Mice from which parasite has been eradicated, percentage (Hymenolepis nana [2]; 25 mg/kg): 40%; Mortality (Hymenolepis nana [2]; 25 mg/kg): 0; Mice from which parasite has been eradicated, number (Hymenolepis nana [2]; 50 mg/kg): 14; Mice from which parasite has been eradicated, percentage (Hymenolepis nana [2]; 50 mg/kg): 70%; Mortality (Hymenolepis nana [2]; 50 mg/kg): 0; Mice from which parasite has been eradicated, number (Hymenolepis nana [2]; 100 mg/kg): 18; Mice from which parasite has been eradicated, percentage (Hymenolepis nana [2]; 100 mg/kg): 90%; Mortality (Hymenolepis nana [2]; 100 mg/kg): 0; Mice from which parasite has been eradicated, number (Hymenolepis nana [2]; 200 mg/kg): 20; Mice from which parasite has been eradicated, percentage (Hymenolepis nana [2]; 200 mg/kg): 100%; Mortality (Hymenolepis nana [2]; 200 mg/kg): 0"
CC(=O)Oc1ccc(OC(C)=O)c(C(=O)Nc2ncc([N+](=O)[O-])s2)c1 [PH 6056],0,1,10,,0,6,60,
CC(=O)Oc1ccc(Cl)cc1C(=O)Nc1ncc([N+](=O)[O-])s1 [PH 6057],0,2,20,1,0,7,70,
CC(=O)Oc1ccc(C(=O)Nc2ncc([N+](=O)[O-])s2)c(OC(C)=O)c1 [PH 6058],0,2,20,,0,2,20,
COc1cc(C(=O)Nc2ncc([N+](=O)[O-])s2)cc(OC)c1OC(C)=O [PH 6059],0,2,20,10,0,1,10,
CC(=O)Oc1ccc(Br)cc1C(=O)Nc1ncc([N+](=O)[O-])s1 [PH 6103],0,2,20,1,0,4,40,
CC(=O)Oc1cc(OC(C)=O)cc(C(=O)Nc2ncc([N+](=O)[O-])s2)c1 [PH 6161],0,7,70,,0,0,0,
CC(=O)Oc1ccc(C(=O)Nc2ncc([N+](=O)[O-])s2)cc1OC(C)=O [PH 6162],0,2,20,,0,1,10,
CC(=O)Oc1cc(C(=O)Nc2ncc([N+](=O)[O-])s2)cc(OC(C)=O)c1OC(C)=O [PH 6177],0,0,0,,0,0,0,
COc1cc(C(=O)Nc2ncc([N+](=O)[O-])s2)ccc1OC(C)=O [PH 6196],0,0,0,,0,0,0,
CC(=O)Oc1cccc(C(=O)Nc2ncc([N+](=O)[O-])s2)c1OC(C)=O [PH 6239],0,1,10,10,0,2,20,
